Results: patent US6180666A, “Use of gallic acid esters to increase bioavailability of orally administered pharmaceutical compounds” (priority 1999, dated 2001)
Read-outs that look alike come from different tables or passages of the source.

Assays:
CYP3A [1] = test: Inhibition of CYP3A-mediated metabolism of amiodarone, buspirone and nifedipine in human liver microsomes (Example 2)
Protocol: (§1) Microsomal pellets were prepared from the homogenate using standard differential centrifugation procedures (Guengerich, Analysis and characterization of enzymes in Principles and Methods of Toxicology, A. W. Hayes (ed.), Raven Press, New York. pp. 777-814 (1989)) and were stored at -80° C. in Tris-acetate buffer, pH 7.4, containing 20% w/v glycerol. Microsomes were diluted in 100 mM potassium phosphate buffer, pH 7.4, for use in metabolic incubations. Microsomal protein and CYP content of the human liver microsomes were determined using methods of Bradford (Bradford, M. M. A rapid and sensitive method for the quantitation of microgram quantities of protein utilizing the principles of protein-dye binding. Anal. Biochem. 72:248-254 (1976)) and Omura and Sato (Omura, T. et. al. The carbon monoxide-binding pigment of liver microsomes II. Solubilization, purification and properties. J. Biol. Chem. 239:2370-2378 (1964)), respectively.
(§2) The ability of propyl gallate at various concentrations to inhibit metabolism for three representative drugs through inhibition of the cytochrome P450 mechanism was tested. Human liver microsomes were prepared and each of three drugs, amiodarone, buspirone, or nifedipine, were incubated with the microsomes in the presence of propyl gallate or a known inhibitor of CYP3A metabolism. Metabolism in the presence of propyl gallate or known CYP3A inhibitor was compared to a control treated only with the solvent in which the inhibitor was dissolved.
(§3) Clin. Pharmacol. Ther. 64: 655-60 (1998)) by human liver microsomes was tested. The microsomes were prepared as in Example 1.
(§4) The amiodarone was present in a concentration of 100 μM, the buspirone was in a concentration of 25 μM, and the nifedipine was present in a concentration of 25 μM. The propyl gallate was tested with each of these drugs at concentrations of 25, 50, and 100 μM.
(§5) The drug and optionally the inhibitor were preincubated with the microsomes at 1 nmol CYP/ml and 1 mM DETAPAC in 100 mM phosphate buffer, pH 7.4 for 5 minutes at 37° C. After the preincubation, metabolic reactions were started by the addition of 1 mM NADPH. Samples were taken at 1, 2, and 3 minutes after the start of the reaction and analyzed by HPLC. Disappearance of substrate and/or formation of metabolite were quantitated by comparison to standard curves.
(§6) The metabolism rates (nmol/ml/min) are the mean±standard deviation of three measurements.
(§7) ^a Formation rate of N-desethylamiodarone metabolite (nmol/ml/min)
(§8) ^b Buspirone disappearance (nmol/ml/min)
(§9) ^c Formation of nifedipine oxidation product
(§10) 2,6-dimethyl-4-(2-nitrophenyl)-3,5-pyridinedicarboxylic acid, dimethyl

CYP3A [2] = target: T1, CYP3A (Homo sapiens, UniProt P08684); test: Inhibition of CYP3A-mediated nifedipine metabolism in human liver microsomes by gallic acid esters (Example 1); details: for activity at 10 µM / activity at 25 µM / activity at 50 µM / activity at 100 µM / activity at 500 µM: read-out: Relative Nifedipine Oxidation Rate (± S.D.)
T1 sequence (P08684 2-503 limits assumed): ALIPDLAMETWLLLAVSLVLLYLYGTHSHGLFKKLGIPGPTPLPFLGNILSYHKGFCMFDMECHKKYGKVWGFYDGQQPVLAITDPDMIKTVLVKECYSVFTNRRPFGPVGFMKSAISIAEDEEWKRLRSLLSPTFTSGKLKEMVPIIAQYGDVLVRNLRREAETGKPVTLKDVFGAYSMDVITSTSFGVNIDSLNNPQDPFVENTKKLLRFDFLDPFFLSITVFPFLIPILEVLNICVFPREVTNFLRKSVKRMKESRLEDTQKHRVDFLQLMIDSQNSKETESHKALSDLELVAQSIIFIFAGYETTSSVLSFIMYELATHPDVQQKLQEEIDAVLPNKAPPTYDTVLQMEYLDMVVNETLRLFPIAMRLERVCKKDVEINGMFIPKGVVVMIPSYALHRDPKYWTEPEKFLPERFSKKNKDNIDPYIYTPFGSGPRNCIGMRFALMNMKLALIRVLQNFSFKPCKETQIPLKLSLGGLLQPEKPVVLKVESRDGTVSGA
Protocol: The known CYP3A substrate nifedipine (Gonzalez, F. J., et al., Human P45OPCN1: sequence, chromosome localization, and direct evidence through cDNA expression that P45OPCN1 is nifedipine oxidase, DNA, 2:79-86 (1988)) was used as a test substrate for evaluating the potential of various gallic acid esters to inhibit CYP3A metabolism in a human liver microsome study.
as §1
In the experiments, 100 μM nifedipine and either 5 μl of a solution of one of the gallic acid esters (at a concentration indicated in Table 1) or 5 μl of solvent alone (control) were preincubated along with 0.1 mg/ml of the human liver microsomal proteins and 1 mM diethylenetriarninepentaacetic acid (DETAPAC) in 100 mM phosphate buffer, pH 7.4, for 5 minutes at 37°0 C. Metabolic reactions were started by addition of reduced β-nicotinamide adenine dinucleotide phosphate (NADPH) to give a final concentration of 1 mM and a final volume of 0.5 ml. Metabolic reactions were stopped after 3 minutes by vortex mixing with 0.2 ml of an extraction solvent of (94:6) acetonitrile:glacial acetic acid. Protein was precipitated by centrifugation (3000 rpm×10 minutes) and supernatants were analyzed for nifedipine and its oxidation product 2,6-dimethyl-4-(2-nitrophenyl)-3,5-pyridinedicarboxylic acid dimethyl ester by High Performance Liquid Chromatography (HPLC).
All experiments were conducted in triplicate and compared to incubations carried out without NADPH or without substrate. The data are the mean±standard deviation of three measurements.
^a Substrate and inhibitor were dissolved in acetonitrile except for
lauryl gallate which required methanol as vehicle.
^b Inhibition constant Ki determinations utilized 10, 20, 50 and
100 μM nifedipine substrate concentrations and experiments were run in
duplicate. Ki values were determined by regression analysis of rate
data using SigmaPlot V4.OS software (SPSS Inc., San Rafael, California).

[3] = Joint FAO/WHO Expert Committee, cited from earlier work; for temporary acceptable daily intake: 1/200 of no observed effect level, 90 day feeding studies in rats
CYP3A [4] = target: T1, CYP3A; test: Inhibition of CYP3A-mediated metabolism of amiodarone, buspirone and nifedipine in human liver microsomes (Example 2)
Protocol: as §1, §2, §3, §4, §5, §6, §7, §8, §9, §10

[5] = inhibitor 100 μM, amiodarone 100 μM
[6] = read-out: Buspirone metabolism rate, % control
[7] = read-out: Nifedipine metabolism rate, % control

Q: With `CC[C@H]1OC(=O)[C@H](C)[C@@H](O[C@H]2C[C@@](C)(OC)[C@@H](O)[C@H](C)O2)[C@H](C)[C@@H](O[C@@H]2O[C@H](C)C[C@H](N(C)C)[C@H]2O)[C@](C)(O)C[C@@H](C)C(=O)[C@H](C)[C@@H](O)[C@]1(C)O` [Erythromycin, reference compound] as the molecule, how does the “Mean ± SD metabolism rate, amiodarone (formation rate of N-desethylamiodarone)” value (CYP3A [1]; [5]) read?
A: 0.84 ± 0.07 nmol/mL/min

Q: With `CC(=O)N1CCN(c2ccc(OCC3COC(Cn4ccnc4)(c4ccc(Cl)cc4Cl)O3)cc2)CC1` (centres unmarked) [Ketoconazole, reference compound] as the molecule, how does the “Amiodarone metabolism rate, % control” value (CYP3A [1]; inhibitor 1 μM, amiodarone 100 μM) read?
A: 4 % control

Q: What does the source list for `CCCCCCCCCCCCOC(=O)c1cc(O)c(O)c(O)c1` [Lauryl gallate, lauryl gallate]?
A: activity at 10 µM (CYP3A [2]): 61%; activity at 25 µM (CYP3A [2]): 31%; activity at 50 µM (CYP3A [2]): 12.6%; activity at 100 µM (CYP3A [2]): 6.4%; temporary acceptable daily intake [3]: 0-0.05 mg/kg body weight

Q: With `COC(=O)c1cc(O)c(O)c(O)c1` [Methyl gallate, methyl gallate] as the molecule, how does the activity at 100 µM (CYP3A [2]) read?
A: 53%

Q: What about the activity at 500 µM (CYP3A [2]) of the same molecule?
A: 16%

Q: For `CCCCCCCCOC(=O)c1cc(O)c(O)c(O)c1` [Octyl gallate, octyl gallate], which “Inhibition of CYP3A-mediated metabolism (in words)” value (CYP3A [2]) is on record?
A: especially good inhibitor of the metabolism at relatively low concentrations

Q: What about the Ki (CYP3A [2]) of the same molecule?
A: 5.2 ± 0.2 µM

Q: What about the activity at 10 µM (CYP3A [2]) of the same molecule?
A: 44%

Q: And the activity at 25 µM (CYP3A [2])?
A: 17.5%

Q: And the activity at 50 µM (CYP3A [2])?
A: 4.9%

Q: What about the activity at 100 µM (CYP3A [2]) of the same molecule?
A: 1.1%

Q: What about the “temporary acceptable daily intake” value [3] of the same molecule?
A: 0-0.1 mg/kg body weight

Q: Which results are given for `CCCOC(=O)c1cc(O)c(O)c(O)c1` [Propyl gallate, 3,4,5-trihydroxybenzoic acid, n-propyl ester]?
A: Ki (CYP3A [2]): 64 ± 2 µM; activity at 50 µM (CYP3A [2]): 59%; activity at 100 µM (CYP3A [2]): 34%; activity at 500 µM (CYP3A [2]): 6.1%; remaining activity at 25 µM (CYP3A [4]; [6]): 65%; remaining activity at 50 µM (CYP3A [4]; [6]): 42%; remaining activity at 100 µM (CYP3A [4]; [6]): 29%; remaining activity at 25 µM (CYP3A [4]; [7]): 82%; remaining activity at 50 µM (CYP3A [4]; [7]): 54%; remaining activity at 100 µM (CYP3A [4]; [7]): 33%; Inhibition of CYP3A-mediated metabolism (in words) (CYP3A [1]): effective inhibitor of CYP3A-mediated metabolism; Inhibition of drug metabolism compared with known CYP3A inhibitors (in words) (CYP3A [1]): better at inhibiting drug metabolism than the established CYP3A inhibitors diltiazem, erythromycin, and verapamil; Mean ± SD metabolism rate, amiodarone (formation rate of N-desethylamiodarone) (CYP3A [1]; inhibitor 25 μM, amiodarone 100 μM): 0.94 ± 0.02 nmol/mL/min; Mean ± SD metabolism rate, amiodarone (formation rate of N-desethylamiodarone) (CYP3A [1]; inhibitor 50 μM, amiodarone 100 μM): 0.55 ± 0.02 nmol/mL/min; Mean ± SD metabolism rate, amiodarone (formation rate of N-desethylamiodarone) (CYP3A [1]; [5]): 0.32 ± 0.03 nmol/mL/min; Amiodarone metabolism rate, % control (CYP3A [1]; microsomes, 25 µM): 49 % control; Amiodarone metabolism rate, % control (CYP3A [1]; microsomes, 50 µM): 28 % control; Amiodarone metabolism rate, % control (CYP3A [1]; microsomes, 100 µM): 17 % control; acceptable daily intake ([3]; 1/100 of no observed effect level, 90 day feeding study in rats): 0 to 1.4 mg/kg/day
